The text below walks through data of patent publication EP0402259A1, “Anthracyclines, process for their preparation and medicaments containing them” (LABORATOIRES HOECHST S.A., priority 1989, dated 1990).

Structures are written as SMILES. Values after ≈ are worked out from the molar mass of the structure shown.

One assay concerns LXF. The experiment in a line: Xenograft (subrenal capsule assay), LXF lung tumour. Type of assay: in vivo. Conditions: for Xénogreffes LXF: grades not defined.
The next assay concerns cellules tumorales L1210. The experiment in a line: Proliferation test (MTT reduction), L1210. In kind it is cell-based. The settings on record: L1210, 72 h incubation; for IC50: Mus musculus, L1210, 72 h, read-out: CI50 TEST AU MTT L1210. On the procedure:
(§1) Les témoins consistent en cellules tumorales exposées à un milieu de culture. Quatre puits sont préparés pour chaque concentration en anthracycline et pour le témoin. Après 65 heures. 50 µl de MTT (2,5 mg/ml dans du PBS) sont ajoutés.
(§2) Le MTT sera réduit en présence de cellules vivantes en un colorant formazan rouge insoluble. Après 7 à 24 heures d'incubation supplémentaire (dépendant des cellules utilisées), le surnageant est enlevé. Le colorant formazan est solubilisé par l'addition de 100 ul de DMSO dans chaque puits, suivie d'une agitation douce.
(§3) L'extinction est mesurée pour chaque puits, à 492 nm (photomètre Multiscan 340 CC Fa. Flow).
(§4) Les résultats sont exprimés comme le rapport de l'extinction après incubation avec les anthracyclines sur l'extinction obtenue avec les témoins.
(Formazan colour is commonly taken as a measure of viable cells.)

The subject of a further assay is L1210. Briefly: In vivo L1210 leukemia, survival time (T/C). Further details: species or system souris BDF1. On the procedure: Un liquide d'ascite est prélevé dans des conditions aseptiques chez des souris DBA2 (femelle, 18 -20 g) le septième jours après l'implantation.
L'ascite est lavée trois fois avec du PBS, comptée et finalement diluée dans du PBS, de manière à obtenir 10^6 cellules/0,2 ml.
10^6 cellules dans 0,2 ml de PBS sont injectées dans le peritoine de souris DBA2 pour la propagation de la lignée cellulaire.
10^6 cellules dans 0,2 ml de PBS sont injectés intrapéritonéalement à des souris BDF1 (femelle 18 -20 g), 6 animauxigroupe sont utilisés pour chaque concentration de substance et pour le contrôle.
• a) les animaux sont pesés le premier jour et le cinquième jour après l'administration du médicament.
A partir du temps de survie moyen des groupes traités (MSTT) et des groupes contrôle (MSTc), l'effet antitumoral (T/C) est évalué en fonction de la formule suivante : [formula]

In a further assay the test system is HT29. The experiment in a line: Xenograft (subrenal capsule assay), HT29 colon tumour. In kind it is in vivo.
The next assay concerns cellules tumorales HT29. The experiment in a line: Proliferation test (MTT reduction), HT29. In kind it is cell-based. The settings on record: HT 29, 72 h incubation; for IC50: Homo sapiens, HT-29, 72 h, read-out: CI50 TEST AU MTT HT 29. On the procedure: as §1, §2, §3, §4
The subject of another assay is A549. The experiment in a line: Xenograft (subrenal capsule assay), A549. In kind it is in vivo.
For the next assay, the system named is cellules tumorales A549. Briefly: Proliferation test (MTT reduction), A549. Type of assay: cell-based. Conditions: A 549, 72 h incubation; for IC50: Homo sapiens, A549, 72 h, read-out: CI50 TEST AU MTT A 549. On the procedure:
as §1, §2, §3, §4

Where [1] appears, read: L1210 i.p. in BDF1 mice, schedule 3 i.v.

In the case of `C[C@@H]1O[C@@H](O[C@H]2C[C@](O)(CO)Cc3c(O)c4c(c(O)c32)C(=O)c2ccccc2C4=O)C[C@H](O)[C@@H]1N` [Composé 13, chlorhydratede (S)-cis-1-O-(4-amino-2,4,6-trideoxy-α-L-lyxo-hexopyranosyl)-1,2.3.4,6.11-hexahydro-1,3,5,12-tétrahydroxy-3-hydroxyméthyl-6,11-naphtacène dione], the “Xénogreffes LXF” value in the assay on LXF is “+ +”. Moreover, in the assay on LXF (in words), the “activité sur tumeur du poumon (LXF)” value is “actif”. In addition, the “CI50 TEST AU MTT L1210” value in the assay with cellules tumorales L1210 was 0,009 µg/ml. Moreover, the dose optimale in the assay on L1210 (setting [1]) is 3,1 mg/kg/Inj. In the assay on L1210 (L1210 i.p. in BDF1 mice, schedule 3 i.v., at optimal dose, T/C above 125 % = significant antitumour effect), this molecule returned a T/C % of 133%. For the same molecule, the activité antitumorale entry in the assay on L1210 (in words, at a dose about three times lower than that of doxorubicine) is recorded as “activité antitumorale non négligeable”. Further, the “activité sur tumeur du colon (HT29)” value in the assay on HT29 (in words) is “à un moindre degré”. In the assay on cellules tumorales HT29, the “CI50 TEST AU MTT HT 29” value was 0,01 µg/ml. Moreover, the “activité sur la lignée cellulaire A549” value in the assay with A549 (in words) is listed as “à un moindre degré”. Further, the “CI50 TEST AU MTT A 549” value in the assay on cellules tumorales A549 is recorded as 0,009 µg/ml.
As to `C[C@@H]1O[C@@H](O[C@H]2C[C@](O)(CO)Cc3c(O)c4c(c(O)c32)C(=O)c2ccccc2C4=O)C[C@H](O)[C@@H]1N=[N+]=[N-]` [compound 6], the results for the IC50 in the assay on cellules tumorales L1210, in the assay with cellules tumorales HT29 and in the assay on cellules tumorales A549 were 0.13 µg/mL (≈ 0.254 µM), 0.46 µg/mL (≈ 0.899 µM) and 0.24 µg/mL (≈ 0.469 µM), respectively.
In the same order, the values of `C[C@@H]1O[C@@H](O[C@H]2C[C@](O)(CO)Cc3c(O)c4c(c(O)c32)C(=O)c2ccccc2C4=O)C[C@H](O)[C@@H]1NC(=O)C(F)(F)F` [compound 11] are 0.015 µg/mL (≈ 0.0258 µM), 0.026 µg/mL (≈ 0.0447 µM) and 0.011 µg/mL (≈ 0.0189 µM).
Take `C[C@@H]1O[C@@H](O[C@H]2C[C@](O)(CO)Cc3c(O)c4c(c(O)c32)C(=O)c2ccccc2C4=O)C[C@H](O)[C@@H]1N` [compound 12, (S)-cis-1-O-{4 amino-2,4,6-trideoxy-α-L-lyxo-hexopyranosyl)-1,2,3,4,6,11-hexahydro-1,3,5,12-tétrahydroxy-3-hydroxyméthyl-6,11-naphtacène dione]: the “CI50 TEST AU MTT L1210” value in the assay on cellules tumorales L1210 was 0,021 µg/ml. For the same molecule, the “CI50 TEST AU MTT HT 29” value in the assay on cellules tumorales HT29 is recorded as 0,03 µg/ml. For the same molecule, in the assay with cellules tumorales A549, the “CI50 TEST AU MTT A 549” value is recorded as 0,24 µg/ml.
For `C[C@@H]1O[C@@H](O[C@H]2C[C@](O)(CO)Cc3c(O)c4c(c(O)c32)C(=O)c2ccccc2C4=O)C[C@H](O)[C@@H]1N1CCOCC1` [compound 14, (S)-cis-1-O-{4-morpholino-2,4,6-tridésoxy-α-L-lyxo-hexopyranosyl)-1,2,3,4,6,11-hexahydro-1,3,5,12-tétrahydroxy-3-hydroxyméthyl-6,11-naphtacène dione], the IC50 in the assay on cellules tumorales L1210 is 0.15 µg/mL (≈ 0.27 µM); in the assay with cellules tumorales HT29, 0.13 µg/mL (≈ 0.234 µM); in the assay on cellules tumorales A549 it was 0.054 µg/mL (≈ 0.0972 µM).
Regarding `COc1cccc2c1C(=O)c1c(O)c3c(c(O)c1C2=O)C[C@@](O)(C(=O)CO)C[C@@H]3O[C@H]1C[C@H](N)[C@H](O)[C@H](C)O1` [doxorubicine, reference compound], the “Xénogreffes LXF” value in the assay on LXF is “+ + +”. The dose optimale with L1210 (setting [1]) is recorded as 8,1 mg/kg/Inj. For the same molecule, the “Xénogreffes HT29” value in the assay with HT29 (grades not defined) is on record as “+ +”. Further, the “Xénogreffes A549” value in the assay on A549 (grades not defined) is recorded as “+ +”.
